System: 699152-130-R-J1-PDC complex spheroid viability
Test: Anticancer human tumor 699152-130-R-J1-PDC patient-derived pancreatic carcinoma cell line growth inhibition [POLQ]
Details: for IC50: curve of first compound; for viability, T/C: stronger effect = lower value
Outline: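 PDC + HUVEC + MSC complex spheroids; POLQ inhibitors ± partner drugs; top conc. at/near clinical Cmax, else 10 microM (SN-38 1 microM), half-log dilutions; 37 degrees C, 5% CO2.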

[1] = second compound 0.0316 µM, first compound 0.0316 µM
[2] = second compound 0.0316 µM, first compound 0.1 µM
[3] = second compound 0.0316 µM, first compound 0.316 µM
[4] = second compound 0.0316 µM, first compound 1 µM
[5] = second compound 0.0316 µM, first compound 3.16 µM
[6] = second compound 0.0316 µM, first compound 10 µM
[7] = second compound 0.1 µM, first compound 0.0316 µM
[8] = second compound 0.1 µM, first compound 0.1 µM
[9] = second compound 0.1 µM, first compound 0.316 µM
[10] = second compound 0.1 µM, first compound 1 µM
[11] = second compound 0.1 µM, first compound 3.16 µM
[12] = second compound 0.1 µM, first compound 10 µM
[13] = second compound 0.316 µM, first compound 0.0316 µM
[14] = second compound 0.316 µM, first compound 0.1 µM
[15] = second compound 0.316 µM, first compound 0.316 µM
[16] = second compound 0.316 µM, first compound 1 µM
[17] = second compound 0.316 µM, first compound 3.16 µM
[18] = second compound 0.316 µM, first compound 10 µM
[19] = second compound 1 µM, first compound 0.0316 µM
[20] = second compound 1 µM, first compound 0.1 µM
[21] = second compound 1 µM, first compound 0.316 µM
[22] = second compound 1 µM, first compound 1 µM
[23] = second compound 1 µM, first compound 3.16 µM
[24] = second compound 1 µM, first compound 10 µM
[25] = second compound 3.16 µM, first compound 0.0316 µM
[26] = second compound 3.16 µM, first compound 0.1 µM
[27] = second compound 3.16 µM, first compound 0.316 µM
[28] = second compound 3.16 µM, first compound 1 µM
[29] = second compound 3.16 µM, first compound 3.16 µM
[30] = second compound 3.16 µM, first compound 10 µM
[31] = second compound 10 µM, first compound 0.0316 µM
[32] = second compound 10 µM, first compound 0.1 µM
[33] = second compound 10 µM, first compound 0.316 µM
[34] = second compound 10 µM, first compound 1 µM
[35] = second compound 10 µM, first compound 3.16 µM
[36] = second compound 10 µM, first compound 10 µM
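Further: spheroids exposed to agents for 7 days before viability reading.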
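Wherever viability, T/C is given: percent of DMSO vehicle control viability so 100% = vehicle and 0% = no viable signal.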

CC(C)n1c(=O)n(C)c2cnc3cc(F)c(-c4ccc(OCCCN5CCCCC5)nc4)cc3c21 + COC1C(OC(N)=O)C(O)C(Oc2ccc3c(O)c(NC(=O)c4ccc(O)c(CC=C(C)C)c4)c(=O)oc3c2C)OC1(C)C
IC50 (second compound 0.0316 µM): < 0.0316 µM | IC50 (second compound 0.1 µM): < 0.0316 µM | IC50 (second compound 0.316 µM): < 0.0316 µM | IC50 (second compound 1 µM): < 0.0316 µM | IC50 (second compound 3.16 µM): < 0.0316 µM | IC50 (second compound 10 µM): < 0.0316 µM | viability, T/C [1]: 38.8% | viability, T/C [2]: 44.1% | viability, T/C [3]: 39.9% | viability, T/C [4]: 47.7% | viability, T/C [5]: 46.4% | viability, T/C [6]: 45.8% | viability, T/C [7]: 34.7% | viability, T/C [8]: 40.6% | viability, T/C [9]: 41.8% | viability, T/C [10]: 41% | viability, T/C [11]: 38.9% | viability, T/C [12]: 39.9% | viability, T/C [13]: 38.9% | viability, T/C [14]: 39.2% | viability, T/C [15]: 46.5% | viability, T/C [16]: 44.8% | viability, T/C [17]: 42% | viability, T/C [18]: 43.5% | viability, T/C [19]: 40.9% | viability, T/C [20]: 44.4% | viability, T/C [21]: 40.4% | viability, T/C [22]: 39.6% | viability, T/C [23]: 41.8% | viability, T/C [24]: 41.8% | viability, T/C [25]: 40.5% | viability, T/C [26]: 41.9% | viability, T/C [27]: 41.7% | viability, T/C [28]: 47.2% | viability, T/C [29]: 42.6% | viability, T/C [30]: 41.3% | viability, T/C [31]: 48.5% | viability, T/C [32]: 39.8% | viability, T/C [33]: 37.8% | viability, T/C [34]: 38.3% | viability, T/C [35]: 44.6% | viability, T/C [36]: 37.5%

CC1COCCN1c1cc(-c2ccnn2C)c2ccnc(-c3ccn[nH]3)c2n1 (stereo unspecified) + COC1C(OC(N)=O)C(O)C(Oc2ccc3c(O)c(NC(=O)c4ccc(O)c(CC=C(C)C)c4)c(=O)oc3c2C)OC1(C)C
IC50 (second compound 0.0316 µM): > 10 µM | IC50 (second compound 0.1 µM): > 10 µM | IC50 (second compound 0.316 µM): 8.54 µM | IC50 (second compound 1 µM): > 10 µM | IC50 (second compound 3.16 µM): > 10 µM | IC50 (second compound 10 µM): > 10 µM | viability, T/C [1]: 94.7% | viability, T/C [2]: 101% | viability, T/C [3]: 71.5% | viability, T/C [4]: 57.2% | viability, T/C [5]: 58.6% | viability, T/C [6]: 53.3% | viability, T/C [7]: 104% | viability, T/C [8]: 97.1% | viability, T/C [9]: 71.1% | viability, T/C [10]: 57.1% | viability, T/C [11]: 57% | viability, T/C [12]: 47% | viability, T/C [13]: 104% | viability, T/C [14]: 99.9% | viability, T/C [15]: 66% | viability, T/C [16]: 56.4% | viability, T/C [17]: 63.1% | viability, T/C [18]: 47.5% | viability, T/C [19]: 99.2% | viability, T/C [20]: 93.3% | viability, T/C [21]: 67.3% | viability, T/C [22]: 64% | viability, T/C [23]: 55.5% | viability, T/C [24]: 51.5% | viability, T/C [25]: 96.3% | viability, T/C [26]: 85.3% | viability, T/C [27]: 76.8% | viability, T/C [28]: 56.1% | viability, T/C [29]: 56.1% | viability, T/C [30]: 52.6% | viability, T/C [31]: 102% | viability, T/C [32]: 80.8% | viability, T/C [33]: 65.6% | viability, T/C [34]: 56.5% | viability, T/C [35]: 58.3% | viability, T/C [36]: 50%

CC1COCCN1c1cc(C2(S(C)(=N)=O)CC2)nc(-c2ccnc3[nH]ccc23)n1 (stereo unspecified) + COC1C(OC(N)=O)C(O)C(Oc2ccc3c(O)c(NC(=O)c4ccc(O)c(CC=C(C)C)c4)c(=O)oc3c2C)OC1(C)C
IC50 (second compound 0.0316 µM): > 10 µM | IC50 (second compound 0.1 µM): > 10 µM | IC50 (second compound 0.316 µM): > 10 µM | IC50 (second compound 1 µM): > 10 µM | IC50 (second compound 3.16 µM): > 10 µM | IC50 (second compound 10 µM): > 10 µM | viability, T/C [1]: 103% | viability, T/C [2]: 102% | viability, T/C [3]: 95.4% | viability, T/C [4]: 96.6% | viability, T/C [5]: 79% | viability, T/C [6]: 69.3% | viability, T/C [7]: 89.8% | viability, T/C [8]: 88% | viability, T/C [9]: 90.2% | viability, T/C [10]: 101% | viability, T/C [11]: 73.3% | viability, T/C [12]: 60.4% | viability, T/C [13]: 98% | viability, T/C [14]: 101% | viability, T/C [15]: 106% | viability, T/C [16]: 88.3% | viability, T/C [17]: 78.8% | viability, T/C [18]: 63% | viability, T/C [19]: 119% | viability, T/C [20]: 97.6% | viability, T/C [21]: 108% | viability, T/C [22]: 92.9% | viability, T/C [23]: 77.8% | viability, T/C [24]: 66.5% | viability, T/C [25]: 108% | viability, T/C [26]: 99.2% | viability, T/C [27]: 98.1% | viability, T/C [28]: 86.4% | viability, T/C [29]: 69.3% | viability, T/C [30]: 64.5% | viability, T/C [31]: 104% | viability, T/C [32]: 107% | viability, T/C [33]: 90.7% | viability, T/C [34]: 90.7% | viability, T/C [35]: 86% | viability, T/C [36]: 87.3%

Source: PubChem BioAssay AID1963835 (Molecular Pharmacology Branch, DTP, NCI, 2024)
